In the OligoGym collection:
Bases are written 5' to 3'; sugars and linkages follow in the same order, as letters with counts (s phosphorothioate, o phosphodiester; PS: all linkages phosphorothioate). C may stand for cytosine or 5-methylcytosine; the collection does not tell. l = locked nucleic acid (LNA); d = 2'-deoxy (DNA)

Target: HIF1A
Assay: HeLa, 100 nM transfected, 24 h, mean of 3
Conditions: ASO

| Sequence | caspase activation (% of PBS control) |
| --- | --- |
| TGGCAAGCATCCTGTA (sugars l4 d8 l1 d1 l2, PS) | 385 |
| TGGCAAGCATCCTGTA (sugars l1 d2 l2 d7 l4, PS) | 435 |
| TGGCAAGCATCCTGTA (sugars llddlddddddldldl, PS) | 390 |
| TGGCAAGCATCCTGTA (sugars l1 d13 l2, PS) | 170 |
| TGGCAAGCATCCTGTA (sugars l2 d2 l1 d8 l3, PS) | 397 |
| GTTACTGCCTTCTTAC (sugars ldddldddddddlddl, PS) | 142 |
| TGGCAAGCATCCTGTA (sugars ldldldddddddldll, PS) | 290 |
| TGGCAAGCATCCTGTA (sugars lldllddddddldlll, PS) | 438 |
| TGGCAAGCATCCTGTA (sugars lldllddddddldldl, PS) | 483 |
| GTTACTGCCTTCT (sugars lddlddddddldl, PS) | 110 |
| TTACTGCCTTCTT (sugars l1 d1 l2 d7 l2, PS) | 165 |
| ACTGCCTTCTTAC (sugars l4 d8 l1, PS) | 387 |
| TTACTGCCTTCTT (sugars l1 d1 l1 d8 l2, PS) | 146 |
| GTTACTGCCTTCTTAC (sugars lddldddddddddldl, PS) | 121 |
| GGCAAGCATCCTG (sugars ldllddddddldl, PS) | 370 |
| GTTACTGCCTTCTTAC (sugars lddllddddddldldl, PS) | 207 |
| GTTACTGCCTTCTTAC (sugars l1 d10 l1 d3 l1, PS) | 127 |
| GTTACTGCCTTCTTAC (sugars l2 d2 l1 d10 l1, PS) | 158 |
| TGGCAAGCATCCTGTA (sugars llldlddddddlldll, PS) | 458 |
| TGGCAAGCATCCTGTA (sugars l1 d10 l3 d1 l1, PS) | 381 |

| Sequence | caspase activation (% of PBS control) |
| --- | --- |
| TGGCAAGCATCCTGTA (sugars l4 d7 l1 d3 l1, PS) | 299 |
| GCAAGCATCCTGT (sugars l3 d7 l3, PS) | 600 |
| TGGCAAGCATCCTGTA (sugars lldldddddddllldl, PS) | 419 |
| GGCAAGCATCCTG (sugars l1 d11 l1, PS) | 316 |
| TGGCAAGCATCCTGTA (sugars ldldlddddddlldll, PS) | 263 |
| GTTACTGCCTTCTTAC (sugars l1 d1 l3 d8 l3, PS) | 463 |
| TTACTGCCTTCTT (sugars l1 d2 l1 d7 l2, PS) | 126 |
| TGGCAAGCATCCTGTA (sugars lldllddddddlldll, PS) | 493 |
| TGGCAAGCATCCTGTA (sugars l2 d13 l1, PS) | 489 |
| GTTACTGCCTTCTTAC (sugars lldldddddddldlll, PS) | 170 |
| GTTACTGCCTTCTTAC (sugars llldlddddddldddl, PS) | 272 |
| GTTACTGCCTTCTTAC (sugars lllllddddddldldl, PS) | 467 |
| GTTACTGCCTTCTTAC (sugars lldllddddddllldl, PS) | 506 |
| GTTACTGCCTTCTTAC (sugars ldldlddddddllldl, PS) | 354 |
| GTTACTGCCTTCTTAC (sugars ldlldddddddlddll, PS) | 191 |
| TGGCAAGCATCCT (sugars l1 d2 l1 d7 l2, PS) | 157 |
| GTTACTGCCTTCTTAC (sugars lddllddddddddldl, PS) | 246 |
| TGGCAAGCATCCTGTA (sugars lldllddddddllddl, PS) | 354 |
| CAAGCATCCTGTA (sugars l4 d6 l1 d1 l1, PS) | 159 |
